Laboratory results published in patent US10125135B2, “Chemical compounds” (AstraZeneca AB, priority 2016, dated 2018).

Biological target: ERα receptor in MCF-7 human ductal carcinoma breast cell line (Homo sapiens (Human), UniProt P03372)
Test: MCF-7 ER down regulation assay (immuno-fluorescence)
Assay type: cell-based
Settings: MCF-7 cells, 18-22 hours incubation; read-out: ER down regulation IC50 value
Protocol: MCF-7 ER Down Regulation Assay
The ability of compounds to down-regulate Estrogen Receptor (ER) numbers was assessed in a cell based immuno-fluorescence assay using the MCF-7 human ductal carcinoma breast cell line. MCF-7 cells were revived directly from a cryovial (approx 5×10^6 cells) in Assay Medium (phenol red free Dulbecco's Modified Eagle's medium (DMEM) (Sigma D5921) containing 2mM L-Glutamine and 5% (v/v) Charcoal/Dextran treated foetal calf serum. Cells were syringed once using a sterile 18 G×1.5 inch (1.2×40 mm) broad gauge needle and cell density was measured using a Coulter Counter (Beckman). Cells were further diluted in Assay Medium to a density of 3.75×10^4 cells per mL and 40 μL per well added to transparent bottomed, black, tissue culture treated 384 well plates (Costar, No. 3712) using a Thermo Scientific Matrix WellMate or Thermo Multidrop. Following cell seeding, plates were incubated overnight at 37° C., 5% CO2 (Liconic carousel incubator). Test data was generated using the LabCyte Echo™ model 555 compound reformatter which is part of an automated workcell (Integrated Echo 2 workcell). 10 mM compound stock solutions of the test compounds were used to generate a 384 well compound dosing plate (Labcyte P-05525-CV1). […] 40 μΛ of DMSO added to wells in row P on the source plate allow for DMSO normalisation across the dose range. To dose the control wells 40 μL of DMSO was added to row O1 and 40 μL of 100 μM fulvestrant in DMSO was added to row O3 on the compound source plate. […] Compounds were dispensed onto the cell plates with a compound source plate prepared as above producing a 12 pt duplicate 3 μM to 3 pM dose range with 3 fold dilutions and one final 10 fold dilution using the Integrated Echo 2 workcell. […] Cells were fixed at room temperature for 20 mins before being washed two times with 250 μL PBS/Proclin (PBS with a Biocide preservative) using a BioTek platewasher, 40 μL of PBS/Proclin was then added to all wells and the plates stored at 4° C. The fixing method described above was carried out on the Integrated Echo 2 workcell. Immunostaining was performed using an automated AutoElisa workcell. The PBS/Proclin was aspirated from all wells and the cells permeabilised with 40 μL PBS containing 0.5% Tween™ 20 (v/v) for 1 hour at room temperature. The plates were washed three times in 250 μL of PBS/0.05% (v/v) Tween 20 with Proclin (PBST with a Biocide preservative) and then 20 μL of ERα (SP1) Rabbit monoclonal antibody (Thermofisher) 1:1000 in PBS/Tween™/3% (w/v) Bovine Serum Albumin was added. The plates were incubated overnight at 4° C. (Liconic carousel incubator) and then washed three times in 250 μL of PBS/0.05% (v/v) Tween™ 20 with Proclin (PBST). The plates were then incubated with 20 μL/well of a goat anti-rabbit IgG AlexaFluor 594 or goat anti-rabbit AlexaFluor 488 antibody (Molecular Probes) with Hoechst at 1:5000 in PBS/Tween™/3% (w/v) Bovine Serum Albumin for lhour at room temperature. The plates were then washed three times in 250 μL of PBS/0.05% (v/v) Tween™ 20 with Proclin (PBST with a Biocide preservative). 20 μL of PBS was added to each well and the plates covered with a black plate seal and stored at 4° C. before being read. Plates were read using a Cellomics Arrayscan reading the 594 nm (24 hr time point) or 488 nm (5 hr timepoint) fluorescence to measure the ERα receptor level in each well. The mean total intensity was normalized for cell number giving the total intensity per cell.

Chain of ERα receptor in MCF-7 human ductal carcinoma breast cell line (P03372 whole entry): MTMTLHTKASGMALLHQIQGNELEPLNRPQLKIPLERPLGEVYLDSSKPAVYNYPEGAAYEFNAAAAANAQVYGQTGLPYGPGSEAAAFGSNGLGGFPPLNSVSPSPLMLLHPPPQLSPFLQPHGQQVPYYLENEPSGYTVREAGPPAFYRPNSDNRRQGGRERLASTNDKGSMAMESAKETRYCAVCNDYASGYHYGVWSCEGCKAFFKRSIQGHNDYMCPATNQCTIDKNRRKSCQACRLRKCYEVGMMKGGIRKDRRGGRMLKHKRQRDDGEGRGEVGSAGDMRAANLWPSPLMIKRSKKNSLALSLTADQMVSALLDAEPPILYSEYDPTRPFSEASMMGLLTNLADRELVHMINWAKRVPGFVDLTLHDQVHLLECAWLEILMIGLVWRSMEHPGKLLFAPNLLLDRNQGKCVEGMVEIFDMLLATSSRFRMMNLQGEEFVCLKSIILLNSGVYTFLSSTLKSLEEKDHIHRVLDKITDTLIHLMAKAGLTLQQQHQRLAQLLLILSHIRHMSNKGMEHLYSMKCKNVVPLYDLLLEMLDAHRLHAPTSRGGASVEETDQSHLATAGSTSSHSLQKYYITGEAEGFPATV

| DC50 [pM] | Structure (SMILES) |
| --- | --- |
| 170 | C[C@@H]1Cc2c(ccc3[nH]ncc23)[C@@H](c2ccc(OCCN3CC(CF)C3)cc2C#N)N1CC1(F)CC1 [Example 39, 2-((6S,8R)-7-((1-fluorocyclopropyl)methyl)-8-methyl-6,7,8,9-tetrahydro-3H-pyrazolo[4,3-f]isoquinolin-6-yl)-5-(2-(3-(fluoromethyl)azetidin-1-yl)ethoxy)benzonitrile] |
| 140 | COc1nc(OCCN2CC(CF)C2)ccc1[C@@H]1c2ccc3[nH]ncc3c2C[C@@H](C)N1CC1(F)CC1 [Example 46, (6S,8R)-7-((1-fluorocyclopropyl)methyl)-6-(6-(2-(3-(fluoromethyl)azetidin-1-yl)ethoxy)-2-methoxypyridin-3-yl)-8-methyl-6,7,8,9-tetrahydro-3H-pyrazolo[4,3-f]isoquinoline] |
| 130 | COc1cc(OCCN2CC(CF)C2)ccc1[C@@H]1c2ccc3[nH]ncc3c2C[C@@H](C)N1CC(C)(F)CF (single isomer, unassigned) [Example 21] |
| 240 | COc1cc(OCCN2CC(C)C2)ccc1[C@@H]1c2ccc3[nH]ncc3c2C[C@@H](C)N1CC(C)(C)F [Example 23, (6S,8R)-7-(2-fluoro-2-methylpropyl)-6-(2-methoxy-4-(2-(3-methylazetidin-1-yl)ethoxy)phenyl)-8-methyl-6,7,8,9-tetrahydro-3H-pyrazolo[4,3-f]isoquinoline] |
| 160 | CC(C)(F)CN1C(c2c(F)cc(OCCN3CC(CF)C3)cc2F)c2ccc3[nH]ncc3c2CC1(C)C (stereo not drawn) [Example 37, 6-(2,6-difluoro-4-(2-(3-(fluoromethyl)azetidin-1-yl)ethoxy)phenyl)-7-(2-fluoro-2-methylpropyl)-8,8-dimethyl-6,7,8,9-tetrahydro-3H-pyrazolo[4,3-f]isoquinoline] |
| 240 | COCC(C)(F)CN1[C@H](c2ccc(OCCN3CC(CF)C3)cc2OC)c2ccc3[nH]ncc3c2C[C@H]1C (single isomer, unassigned) [Example 17] |
| 590 | COc1cc(OCCN2CC(CF)C2)ncc1[C@@H]1c2ccc3[nH]ncc3c2C[C@@H](C)N1CC1(F)CC1 [Example 42, (6S,8R)-7-((1-fluorocyclopropyl)methyl)-6-(6-(2-(3-(fluoromethyl)azetidin-1-yl)ethoxy)-4-methoxypyridin-3-yl)-8-methyl-6,7,8,9-tetrahydro-3H-pyrazolo[4,3-f]isoquinoline] |
| 440 | COCC(C)(F)CN1[C@H](c2ccc(OCCN3CC(CF)C3)cc2OC)c2ccc3[nH]ncc3c2C[C@H]1C (single isomer, unassigned) [Example 16] |
| 230 | COc1cc(OCCN2CC(CF)C2)ccc1[C@@H]1c2ccc3[nH]ncc3c2C[C@@H](C)N1CC1(F)COC1 [Example 13, (6S,8R)-6-(4-(2-(3-(fluoromethyl)azetidin-1-yl)ethoxy)-2-methoxyphenyl)-7-((3-fluorooxetan-3-yl)methyl)-8-methyl-6,7,8,9-tetrahydro-3H-pyrazolo[4,3-f]isoquinoline] |
| 150 | COc1cc(OCCN2CC(CF)C2)ccc1[C@@H]1c2ccc3[nH]ncc3c2C[C@@H](C)N1CC(F)(F)CO [Example 14, 2,2-difluoro-3-((6S,8R)-6-(4-(2-(3-(fluoromethyl)azetidin-1-yl)ethoxy)-2-methoxyphenyl)-8-methyl-3,6,8,9-tetrahydro-7H-pyrazolo[4,3-f]isoquinolin-7-yl)propan-1-ol] |
| 51 | COc1cc(OCCN2CC(CF)C2)ccc1[C@@H]1c2ccc3[nH]ncc3c2C[C@@H](C)N1CC(F)(F)F [Example 12, (6S,8R)-6-(4-(2-(3-(fluoromethyl)azetidin-1-yl)ethoxy)-2-methoxyphenyl)-8-methyl-7-(2,2,2-trifluoroethyl)-6,7,8,9-tetrahydro-3H-pyrazolo[4,3-f]isoquinoline] |
| 91 | COCC(F)(F)CN1[C@H](c2ccc(OCCN3CC(CF)C3)cc2OC)c2ccc3[nH]ncc3c2C[C@H]1C [Example 15, (6S,8R)-7-(2,2-difluoro-3-methoxypropyl)-6-(4-(2-(3-(fluoromethyl)azetidin-1-yl)ethoxy)-2-methoxyphenyl)-8-methyl-6,7,8,9-tetrahydro-3H-pyrazolo[4,3-f]isoquinoline] |
| 280 | C[C@@H]1Cc2c(ccc3[nH]ncc23)[C@@H](c2c(F)cc(OCCN3CC(CF)C3)cc2F)N1CC(F)CF (single isomer, unassigned) [Example 34] |
| 420 | CC(C)CN1[C@H](c2c(F)cc(OCCN3CC(CF)C3)cc2F)c2ccc3[nH]nc(F)c3c2C[C@H]1C [Example 44, (6S,8R)-6-(2,6-difluoro-4-(2-(3-(fluoromethyl)azetidin-1-yl)ethoxy)phenyl)-1-fluoro-7-isobutyl-8-methyl-6,7,8,9-tetrahydro-3H-pyrazolo[4,3-f]isoquinoline] |
| 250 | CC(C)CN1C(c2c(F)cc(OCCN3CC(CF)C3)cc2F)c2ccc3[nH]ncc3c2CC1(C)C (stereo not drawn) [Example 36, 6-(2,6-difluoro-4-(2-(3-(fluoromethyl)azetidin-1-yl)ethoxy)phenyl)-7-isobutyl-8,8-dimethyl-6,7,8,9-tetrahydro-3H-pyrazolo[4,3-f]isoquinoline] |
| 130 | COc1cc(OCCN2CC(CF)C2)cc(F)c1[C@@H]1c2ccc3[nH]ncc3c2C[C@@H](C)N1CC(F)(F)CO [Example 26, 2,2-difluoro-3-((6S,8R)-6-(2-fluoro-4-(2-(3-(fluoromethyl)azetidin-1-yl)ethoxy)-6-methoxyphenyl)-8-methyl-8,9-dihydro-3H-pyrazolo[4,3-f]isoquinolin-7(6H)-yl)propan-1-ol] |
| 36 | COc1cc(OCCN2CC(CF)C2)ccc1[C@@H]1c2ccc3[nH]ncc3c2C[C@@H](C)N1CC(C)(F)F [Example 11, (6S,8R)-7-(2,2-difluoropropyl)-6-(4-(2-(3-(fluoromethyl)azetidin-1-yl)ethoxy)-2-methoxyphenyl)-8-methyl-6,7,8,9-tetrahydro-3H-pyrazolo[4,3-f]isoquinoline] |
| 260 | C[C@@H]1Cc2c(ccc3[nH]ncc23)[C@@H](c2c(F)cc(OCCN3CC(CF)C3)cc2F)N1CC(F)CF (single isomer, unassigned) [Example 35] |
| 110 | COc1cc(OCCN2CC(CF)C2)cc(F)c1[C@@H]1c2ccc3[nH]ncc3c2C[C@@H](C)N1CC(C)(F)F [Example 25, (6S,8R)-7-(2,2-difluoropropyl)-6-(2-fluoro-4-(2-(3-(fluoromethyl)azetidin-1-yl)ethoxy)-6-methoxyphenyl)-8-methyl-6,7,8,9-tetrahydro-3H-pyrazolo[4,3-f]isoquinoline] |
| 3100 | CC1(C)Cc2c(ccc3[nH]ncc23)C(c2ccc(OCCN3CC(CF)C3)cn2)N1CC(F)F (stereo not drawn) [Example 45, 7-(2,2-difluoroethyl)-6-(5-(2-(3-(fluoromethyl)azetidin-1-yl)ethoxy)pyridin-2-yl)-8,8-dimethyl-6,7,8,9-tetrahydro-3H-pyrazolo[4,3-f]isoquinoline] |
| 1900 | C[C@@H]1Cc2c(ccc3[nH]ncc23)[C@@H](c2ncc(OCCN3CC(CF)C3)cc2F)N1CC(F)F [Example 48, (6S,8R)-7-(2,2-difluoroethyl)-6-(3-fluoro-5-(2-(3-(fluoromethyl)azetidin-1-yl)ethoxy)pyridin-2-yl)-8-methyl-6,7,8,9-tetrahydro-3H-pyrazolo[4,3-f]isoquinoline] |

Same assay, conditions: MCF-7 cells; >90% unless otherwise stated

| % downregulation (in brackets) in ER down regulation assay [%] | Structure (SMILES) |
| --- | --- |
| 67 | COc1cc(OCCN2CC(C)C2)ccc1[C@@H]1c2ccc3[nH]ncc3c2C[C@@H](C)N1CC(C)(C)F [Example 23, (6S,8R)-7-(2-fluoro-2-methylpropyl)-6-(2-methoxy-4-(2-(3-methylazetidin-1-yl)ethoxy)phenyl)-8-methyl-6,7,8,9-tetrahydro-3H-pyrazolo[4,3-f]isoquinoline] |
| 56 | COCC(C)(F)CN1[C@H](c2ccc(OCCN3CC(CF)C3)cc2OC)c2ccc3[nH]ncc3c2C[C@H]1C (single isomer, unassigned) [Example 16] |
| <50 | COc1cc(OCCN2CC(OC)C2)ccc1[C@@H]1c2ccc3[nH]ncc3c2C[C@@H](C)N1CC(C)(C)F [Example 24, (6S,8R)-7-(2-fluoro-2-methylpropyl)-6-(2-methoxy-4-(2-(3-methoxyazetidin-1-yl)ethoxy)phenyl)-8-methyl-6,7,8,9-tetrahydro-3H-pyrazolo[4,3-f]isoquinoline] |
